Data reported in paper PMC5681660, “Reduced hepatitis B and D viral entry using clinically applied drugs as novel inhibitors of the bile acid transporter NTCP” (Scientific Reports, 2017).
Several values for one entry are separate records, joined by “and”; a condition that tells them apart may be missing. Equal entries are not always repeated. Entries after “also recorded” stand apart in the source; their conditions may differ.

How the values were obtained:
[1] = test system: HBV
[2] = sulfasalazine 1 gram; ref 5 (supplement); cited from earlier work
[3] = molecular target: T1, human ASBT (Homo sapiens, UniProt Q12908); assay: Taurocholate uptake in MDCK-hASBT cells; type: cell-based; settings: compared with NTCP
T1 construct: expressed in transfected cells; gift of Paul Dawson; induced with sodium butyrate
T1 sequence (Q12908 1-348): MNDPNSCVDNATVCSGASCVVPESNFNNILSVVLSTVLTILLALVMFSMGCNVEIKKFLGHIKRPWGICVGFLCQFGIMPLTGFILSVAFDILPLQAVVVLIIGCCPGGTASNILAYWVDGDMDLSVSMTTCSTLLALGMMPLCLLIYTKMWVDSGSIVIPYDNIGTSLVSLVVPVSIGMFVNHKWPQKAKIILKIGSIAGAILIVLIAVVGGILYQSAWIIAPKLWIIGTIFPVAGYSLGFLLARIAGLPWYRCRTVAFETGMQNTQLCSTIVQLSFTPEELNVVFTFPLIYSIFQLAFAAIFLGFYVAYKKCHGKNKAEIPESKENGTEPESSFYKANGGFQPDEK
Protocol: (§1) U2OS and MDCK cells were grown in Dulbecco’s modified Eagle’s medium (DMEM, Sigma-Aldrich), supplemented with 10% FCS (Gibco), 1% L-glutamine (Lonza), and 1% penicillin/streptomycin (Lonza). […] Transient transfection of U2OS cells with mouse NTCP (mNTCP) was done with PEI reagent (Brunschwig, Basel, Switzerland). Shortly, U2OS cells were seeded one day prior to transfection in 24-well plates. On the day of transfection, 0.5 µg DNA was mixed with 100 µl unsupplemented DMEM and 3 µg/µl PEI. After 10–15 minute incubation at RT, 20 µl of the transfection mix was added to each 24-well. Transfected cells were used in further experiments 48–72 hours later. Cell lines were passaged twice a week at a confluence of 80%, and incubated in a humidified atmosphere of 37 °C + 5% CO2.
(§2) For MDCK or MDCK-hASBT cells 70.000 cells/well were plated in 24-well plates, followed by 24 hours 10 mM sodium butyrate (Sigma-Aldrich) stimulation the next day. Cells were used in the inhibition studies 24 hours (U2OS cell lines) or 48 hours (MDCK cell lines) later. Inhibition studies with mNTCP transiently transfected cells were conducted 48–72 hours after transfection.
(§3) Medium was aspirated from the wells and cells were washed once with 250 µL uptake buffer. Subsequently, cells were pre-incubated with drug in 150 µL uptake buffer for 10 minutes at 37 °C. Taurocholate uptake was initiated by addition of 100 µL uptake buffer containing taurocholate (final concentration 10 µM TC spiked with tritium-labeled TC) and cells were incubated for 2 minutes at 37 °C. Subsequently, cells were washed 4 times with ice-cold PBS and lysed with 0.05% SDS in water. Radioactivity was measured by liquid scintillation counting.

[4] = molecular target: T2, human NTCP (Homo sapiens, UniProt Q14973); assay: Screening taurocholate uptake assay (96-well, [14C]taurocholate, 10 µM drug)
T2 sequence (Q14973 1-349): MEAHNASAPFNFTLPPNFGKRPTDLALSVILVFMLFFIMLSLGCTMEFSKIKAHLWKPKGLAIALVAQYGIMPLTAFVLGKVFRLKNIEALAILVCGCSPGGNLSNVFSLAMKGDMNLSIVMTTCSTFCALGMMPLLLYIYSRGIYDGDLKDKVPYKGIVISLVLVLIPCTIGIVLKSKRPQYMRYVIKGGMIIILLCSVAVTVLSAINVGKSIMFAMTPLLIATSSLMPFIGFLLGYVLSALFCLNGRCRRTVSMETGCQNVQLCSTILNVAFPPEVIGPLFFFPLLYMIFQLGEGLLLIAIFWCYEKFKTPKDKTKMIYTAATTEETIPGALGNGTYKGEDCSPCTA

[5] = molecular target: T3, mouse NTCP (Mus musculus, UniProt O08705); assay: Taurocholate uptake in U2OS cells transiently transfected with mouse NTCP; type: cell-based; settings: at the calculated IC50 value for hNTCP
T3 construct: expressed in transfected cells; host or cells: U2OS (transient transfection, PEI)
T3 sequence (O08705 1-362): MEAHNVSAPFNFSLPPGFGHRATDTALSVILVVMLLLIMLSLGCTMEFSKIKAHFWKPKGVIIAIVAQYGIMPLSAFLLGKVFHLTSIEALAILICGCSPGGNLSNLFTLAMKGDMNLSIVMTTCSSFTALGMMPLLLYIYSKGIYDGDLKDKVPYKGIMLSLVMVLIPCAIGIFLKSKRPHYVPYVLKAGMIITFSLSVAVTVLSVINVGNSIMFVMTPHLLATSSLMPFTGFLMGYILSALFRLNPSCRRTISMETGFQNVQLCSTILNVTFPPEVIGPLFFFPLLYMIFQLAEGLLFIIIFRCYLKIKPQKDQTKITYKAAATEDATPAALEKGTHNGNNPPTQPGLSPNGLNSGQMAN
Protocol: as §1, §2, §3

[6] = in vitro; settings: human
[7] = test system: HDV; assay: HDV infection of HepaRG cells (HDAg immunofluorescence); type: cell-based, hepatitis delta virus; settings: HDAg positive cells, day 5; concentration-dependent
[8] = molecular target: T2, human NTCP; assay: Taurocholate uptake inhibition studies in U2OS-HA-hNTCP cells; type: cell-based; parameters: HA; expressed in transfected cells
Protocol: as §2, §3

**Q.** For `O=C(O)c1cc(/N=N/c2ccc(S(=O)(=O)Nc3ccccn3)cc2)ccc1O` [Sulfasalazine], which “HBV infection in HepaRG cells (in words)” value ([1]; HBeAg, HBsAg, HBcAg, concentration-dependent) is on record?
**A.** reduced HBV/HDV infection; also recorded: reduce

**Q.** And the “concentration effective in reducing HBsAg” value ([1]; HepaRG cells infected with HBV, supernatant day 7 to 10)?
**A.** ≥ 50 µM

**Q.** What about the “number of HBcAg positive stained cells” value ([1]; HepaRG cells, day 10 post HBV infection, 50 µM) of the same compound?
**A.** mild reduction

**Q.** And the Expected serum concentration [2]?
**A.** 6 µg/ml and ~15 µM

**Q.** What about the “inhibition of ASBT-mediated taurocholate uptake” value [3] of the same compound?
**A.** largely ineffective

**Q.** What about the “inhibition of ASBT-mediated taurocholate uptake” value ([3]; listed as sulfasalazine) of the same compound?
**A.** Complete absence of ASBT inhibition

**Q.** What about the Ranking score ([4]; ranking over the functional and the binding screening assay) of the same compound?
**A.** 34.8999

**Q.** And the B-score functional assay ([4]; screening taurocholate uptake, 10 µM drug)?
**A.** -3.903

**Q.** What about the “inhibition of mouse Ntcp-mediated taurocholate uptake compared with human NTCP” value [5] of the same compound?
**A.** inhibited similarly as human NTCP

**Q.** What about the viability at 2 h, 1 µM [6] of the same compound?
**A.** 100 ± 6.9%

**Q.** And the viability at 2 h, 10 µM [6]?
**A.** 101 ± 8.4%

**Q.** What about the viability at 2 h, 100 µM [6] of the same compound?
**A.** 97.8 ± 8%

**Q.** And the “HDV infection in HepaRG cells (in words)” value [7]?
**A.** reduced HBV/HDV infection; also recorded: reduce

**Q.** And the “concentration at which NTCP was inhibited in repeated measurements of TC-uptake and Myrcludex B binding” value ([8]; U2OS-HA-hNTCP cells, both TC uptake and Myrcludex B binding)?
**A.** ≤ 10 µM

**Q.** And the IC50 ([8]; U2OS-HA-hNTCP cells, concentrations 1 nM to 10 mM, read-out: IC50 for hNTCP-mediated TC uptake)?
**A.** 9.6 µM

**Q.** What about the “Taurocholate uptake into U2OS-HA-hNTCP cells (in words)” value ([8]; increasing drug concentrations) of the same compound?
**A.** reduced
